# Patent publication US9951046B2, “TRPA1 modulators” (Algomedix, Inc., priority 2014, dated 2018)
# Tested on: neuropathic pain after L5-L6 spinal nerve injury
# Experiment: Spinal nerve ligation (SNL, Chung) neuropathic pain model, von Frey test
# Format: in vivo, rat
# Conditions: rat, 30 mg/kg i.p., 18 days after L5-L6 spinal nerve injury, von Frey test 2 hrs post-dose; number of experiments in brackets
# Description: This example describes the use of an animal model for testing compounds of the disclosure for their ability to reduce neuropathic pain. For the neuropathic pain model (spinal nerve ligation, SNL) also known as the Chung model, rats are anesthetized with isoflurane and placed on a heating pad. Using aseptic techniques, the L5 and L6 spinal nerves are exposed, ligated and transected (Kim, S. H. and Chung, J. […] Muscle and skin are closed with 4-0 Polydiaxone and wound clips, respectively. Allodynia is assessed 2-4 weeks post SNL surgery and only rats that develop allodynia as defined by a significant decrease in their mechanical threshold using von Frey filaments are used. Tactile allodynia is assessed with calibrated von Frey filaments (Stoelting Co, Wood Dale, Ill.), using an up-down paradigm (Chaplan, S. R., et al. (1994) J. Neurosci. Methods, 53 (1): 55-63). […] Test compounds are administered to the surgically treated rats either orally or I.P, and pain measurements are assessed at post-dosing intervals that correspond to near-maximal peak plasma concentrations for the test compound and specific mode of administration. The action of test compounds 175, 180, and 198 was evaluated in the Chung model after surgery to induce neuropathy. […] (10 ml/kg) was administered as a positive control group. Vehicle and test compounds were dissolved in 10% DMSO, 20% Tween-80 and 40% PEG-400. On the day before treatment, the neuropathic pain basal response was measured by von Frey test and the rats were randomized based on PWT responses. A cut-off of <4.0 g was considered before selection of animals for treatment. On the day of treatment, the test compounds were administered at 30 mg/kg i.p. (10 ml/kg) dissolved in 10% DMSO, 20% Tween-80, 40% PEG-400. […] (10 ml/kg). The mechanical allodynia was measured at 2 hrs post-dose. Results for compound 175 are shown in FIGS. 1 and 2 where data are presented as paw withdrawal threshold (PWT in g) (FIG. 1) and percentage of maximal possible effect (% MPE) (FIG. 2). Each bar represents the mean±SEM of 8 rats.
row,Structure (SMILES),% MPE (% Maximum Possible Effect)
1,O=C(c1cc(-c2cccnc2)n(-c2cc(F)c(F)c(F)c2)n1)N1CCC(n2c(=O)[nH]c3ccc(F)c(F)c32)CC1 [Compound 198],41 (1) %
2,O=C(c1cc(-c2ccncc2)n(-c2cc(F)c(F)c(F)c2)n1)N1CCC(n2c(=O)[nH]c3ccc(F)c(F)c32)CC1 [Compound 175],59 ± 10 (3) ^ %
3,O=C(c1cc(-c2cccnc2)n(-c2ccc(C(F)(F)F)c(F)c2)n1)N1CCC2(CC1)C(=O)NCN2c1ccc(F)cc1 [Compound 180],65 (1) %

# Same assay, conditions: rats 18 days after L5-L6 spinal nerve injury, 30 mg/kg i.p., mechanical allodynia 2 hrs post-dose, p<0.001 vs vehicle
row,Structure (SMILES),anti-allodynic effect on paw withdrawal threshold and % MPE
1,O=C(c1cc(-c2cccnc2)n(-c2cc(F)c(F)c(F)c2)n1)N1CCC(n2c(=O)[nH]c3ccc(F)c(F)c32)CC1 [Compound 198],significant anti-allodynic effect
2,O=C(c1cc(-c2ccncc2)n(-c2cc(F)c(F)c(F)c2)n1)N1CCC(n2c(=O)[nH]c3ccc(F)c(F)c32)CC1 [Compound 175],significant anti-allodynic effect
3,O=C(c1cc(-c2cccnc2)n(-c2ccc(C(F)(F)F)c(F)c2)n1)N1CCC2(CC1)C(=O)NCN2c1ccc(F)cc1 [Compound 180],significant anti-allodynic effect

# Tested on: paclitaxel-induced neuropathic pain
# Experiment: Paclitaxel chemotherapy-induced neuropathic pain model, von Frey filaments
# Format: in vivo
# Conditions: rat paclitaxel model, 10 mg/kg i.p., 2 hrs post-dose, p<0.05
# Description: Chemotherapy-induced peripheral neuropathy is one of the most serious complications of anti-cancer drug therapy. […] The TRPA1 antagonist, AD_09, has been reported to reduce neuropathic pain in the oxaliplatin model (Nativi, C, et al. (2013) Scientific Reports 3, 2005, 1-10.)
# The studies described below provide a method to test compounds of the present invention in the established rat model of paclitaxel-induced neuropathic pain (Flatters, S J and Bennett, G, Pain (2004) 109:150-161) and provide evidence for efficacy for one compound of the present invention. In this procedure, male Sprague-Dawley rats received i.p. injections of 1 mg/kg paclitaxel or vehicle solution every other day for a total of 4 injections (Day 0, 2, 4 and 6). After receiving injections on even-number experimental days, the rats were tested for mechanical and cold allodynia on odd-number experimental days. After the full development of allodynia after the last paclitaxel injection on day 11, one subgroup of the rats (7 rats per treatment group) received an oral dose or i.p. injection of compound of the present invention (e.g., 1, 3, 10 or 30 mg/kg) or its vehicle solution. On the day of treatment, the test compound was administered at 10 mg/kg i.p. (2 ml/kg) dissolved in 10% DMSO, 20% Tween-80, 40% PEG-400. Additional test groups included vehicle control and gabapentin at 10, 30 and 100 mg/kg i.p. (2 ml/kg). The mechanical allodynia was measured at 2 hrs post-dose for compound 271. Mechanical allodynia was measured using the Von Frey filaments to determine the paw withdrawal threshold for each animal and assess the effects of the test compound-s to reduce pain. Rats were tested for mechanical and/or cold allodynia 1 hour after dosing.
# Rats can be tested at approximately 2 hour intervals thereafter (time interval dependent on the effect) as long as the effect of TRPA1 antagonist lasts. In some cases, more than one treatment of the compound of the present invention (TRPA1 antagonist) can be given before or after the effect of the previous dose subsides to provide repetitive dosing regimens.
row,Structure (SMILES),anti-allodynic effect on paw withdrawal threshold
1,O=C(c1cc(-c2cccnc2)n(-c2ccc(F)c(C(F)(F)F)c2)n1)N1CCC(n2c(=O)[nH]c3ccc(F)c(F)c32)CC1 [Compound 271],significant anti-allodynic effect

# Same assay, conditions: rat paclitaxel model, 10 mg/kg i.p., mechanical allodynia (von Frey)
row,Structure (SMILES),% MPE for reversing paclitaxel induced neuropathic pain
1,O=C(c1cc(-c2cccnc2)n(-c2ccc(F)c(C(F)(F)F)c2)n1)N1CCC(n2c(=O)[nH]c3ccc(F)c(F)c32)CC1 [Compound 271],49.1 % MPE
2,"NCC1(CC(=O)O)CCCCC1 [gabapentin, reference compound]",34.8 % MPE

# Target: T1, human TRPA1 (Homo sapiens, UniProt O75762)
# T1 construct: expressed in transfected cells
# T1 sequence (O75762 whole entry): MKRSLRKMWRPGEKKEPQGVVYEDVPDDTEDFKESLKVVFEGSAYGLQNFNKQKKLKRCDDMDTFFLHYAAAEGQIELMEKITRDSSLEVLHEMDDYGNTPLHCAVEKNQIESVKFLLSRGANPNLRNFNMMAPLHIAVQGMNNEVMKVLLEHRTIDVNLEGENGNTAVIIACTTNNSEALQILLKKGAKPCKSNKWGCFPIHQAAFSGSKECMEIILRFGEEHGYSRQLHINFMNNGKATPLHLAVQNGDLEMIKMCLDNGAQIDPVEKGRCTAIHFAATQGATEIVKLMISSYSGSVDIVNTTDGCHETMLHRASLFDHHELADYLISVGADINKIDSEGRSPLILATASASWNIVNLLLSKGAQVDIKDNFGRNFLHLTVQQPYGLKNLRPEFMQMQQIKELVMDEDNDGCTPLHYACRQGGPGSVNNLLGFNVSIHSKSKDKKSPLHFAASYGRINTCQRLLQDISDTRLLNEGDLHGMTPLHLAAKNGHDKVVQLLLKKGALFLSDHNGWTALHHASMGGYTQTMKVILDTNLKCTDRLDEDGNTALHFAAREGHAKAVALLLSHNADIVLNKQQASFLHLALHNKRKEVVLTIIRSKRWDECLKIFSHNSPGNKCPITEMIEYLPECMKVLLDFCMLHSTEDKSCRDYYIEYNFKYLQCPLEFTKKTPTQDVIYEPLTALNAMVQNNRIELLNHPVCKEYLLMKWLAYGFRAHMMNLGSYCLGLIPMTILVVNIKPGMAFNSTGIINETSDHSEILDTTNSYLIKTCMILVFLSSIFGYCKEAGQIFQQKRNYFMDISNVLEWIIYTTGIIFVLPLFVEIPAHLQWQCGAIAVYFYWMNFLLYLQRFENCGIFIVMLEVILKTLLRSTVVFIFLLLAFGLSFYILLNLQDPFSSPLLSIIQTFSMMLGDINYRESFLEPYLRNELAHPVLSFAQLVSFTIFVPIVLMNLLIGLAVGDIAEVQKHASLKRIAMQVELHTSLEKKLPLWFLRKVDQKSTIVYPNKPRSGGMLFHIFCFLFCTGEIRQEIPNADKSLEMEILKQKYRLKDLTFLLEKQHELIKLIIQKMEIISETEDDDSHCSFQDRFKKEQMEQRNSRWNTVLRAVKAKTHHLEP
# Experiment: Cell-based functional intracellular calcium ([Ca2+]i) assay, Fluo-4/Fluo-8, FlexStation, challenge with reference TRPA1 agonist (FFA, AITC or 4-HNE)
# Conditions: not given
# How it was run: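 Doxycycline-induced (1 μg/ml) HEK293 expressing human TRPA1, with 5 μM ruthenium red during induction, loaded with Fluo-4 or Fluo-8 plus 2 mM probenecid; FlexStation read at 20-25° C, sometimes with 0.1% BSA.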
row,Structure (SMILES),IC50
1,N#Cc1ccc(-n2nc(C(=O)N3C4CCC3CC3(C4)C(=O)NCN3c3ccc(F)cc3)cc2-c2cccnc2)cc1F (centres unmarked) [Compound 330],0.001 to 5 µM
2,O=C(c1cc(-c2cccnc2)n(-c2ccc(F)c(C(F)(F)F)c2)n1)N1C2CCC1CC1(C2)C(=O)NCN1c1ccc(F)cc1 (centres unmarked) [Compound 333],0.001 to 5 µM
3,O=C(c1cc(-c2ccncc2)n(-c2cccc(C(F)(F)F)c2)n1)N1CCC2(CC1)OCCO2 [Compound 148],> 25 µM
4,O=C(c1cc(-c2cccnc2)n(-c2ccc(C(F)(F)F)c(F)c2)n1)N1C2CCC1CC1(C2)C(=O)NCN1c1ccc(F)cc1 (centres unmarked) [Compound 193],0.001 to 5 µM

# Same assay, conditions: HEK293 cells expressing human TRPA1; IC50 class after addition of reference TRPA1 agonist (FFA, AITC or 4-HNE); read-out: human TRPA1-HEK Activity
row,Structure (SMILES),IC50
1,O=C(c1cc(-c2cccnc2)n(-c2cc(F)c(F)c(F)c2)n1)N1CCC(n2c(=O)[nH]c3ccc(F)c(F)c32)CC1 [Compound 198],0.001 to 5 µM
2,O=C(c1cc(-c2ccncc2)n(-c2cc(F)c(F)c(F)c2)n1)N1CCC(n2c(=O)[nH]c3ccc(F)c(F)c32)CC1 [Compound 175],0.001 to 5 µM
3,O=C(c1cc(-c2cccnc2)n(-c2ccc(C(F)(F)F)c(F)c2)n1)N1CCC2(CC1)C(=O)NCN2c1ccc(F)cc1 [Compound 180],0.001 to 5 µM
4,Cn1c(=O)c(=O)n(C)c2cc(NC(=O)c3cc(-c4ccncc4)n(-c4ccc(F)c(F)c4)n3)ccc21 [Compound 91],> 25 µM
5,Cn1c(=O)n(C2CCN(C(=O)c3cc(-c4ccncc4)n(-c4ccc(F)c(F)c4)n3)CC2)c2ccccc21 [Compound 83],> 25 µM
6,O=C1Nc2cc(F)ccc2C2(CCN(C(=O)c3cc(-c4cccnc4)n(-c4ccc(F)c(C(F)(F)F)c4)n3)CC2)O1 [Compound 278],0.001 to 5 µM
7,O=C(c1cc(-c2cccnc2)n(-c2cc(F)c(F)c(F)c2)n1)N1C2CCC1CC(n1c(=O)[nH]c3ccc(F)c(F)c31)C2 (centres unmarked) [Compound 250],> 25 µM
8,O=C(c1cc(-c2ccncc2)n(-c2ccccc2)n1)N1CCC2(CC1)CC(F)(F)CO2 [Compound 16],5 to 25 µM
9,N#Cc1ccc(-n2nc(C(=O)N3CCC4(CC3)C(=O)NCN4c3ccc(F)cc3)cc2-c2cccnc2)c(C(F)(F)F)c1 [Compound 324],0.001 to 5 µM
10,N#Cc1cc(C(F)(F)F)ccc1-n1nc(C(=O)N2CCC(n3c(=O)[nH]c4ccc(F)c(F)c43)CC2)cc1-c1cccnc1 [Compound 245],> 25 µM
11,O=C(c1cc(-c2ccncc2)n(-c2ccccc2)n1)N1CCC2(CC1)OCc1ccccc12 [Compound 170],> 25 µM
12,O=C(c1cc(-c2cccnc2)n(-c2ccc(C(F)(F)F)c(F)c2)n1)N1CCC2(CC1)C(=O)NCN2c1ccc(F)c(C(F)(F)F)c1 [Compound 187],0.001 to 5 µM
13,N#Cc1cc(C(F)(F)F)ccc1-n1nc(C(=O)N2CCC3(CC2)C(=O)NCN3c2ccc(F)cc2)cc1-c1cccnc1 [Compound 323],0.001 to 5 µM
14,O=C(c1cc(-c2ccncc2)n(-c2ccc(C(F)(F)F)cc2)n1)N1CCC(n2c(=O)[nH]c3ccccc32)CC1 [Compound 144],5 to 25 µM
15,O=C(c1cc(-c2ccncc2)n(-c2ccccc2)n1)N1CCC(N2C(=O)OC[C@H]2c2ccccc2)CC1 [Compound 173],> 25 µM
16,CC1CC(n2c(=S)[nH]c3ccc(F)c(F)c32)CCN1C(=O)c1cc(-c2cccnc2)n(-c2ccc(F)c(C(F)(F)F)c2)n1 (centres unmarked) [Compound 294],0.001 to 5 µM

row,Structure (SMILES),IC50
1,O=C(c1cc(-c2ccncc2)n(-c2ccccc2)n1)N1CCN(c2ccc(C(F)(F)F)cn2)CC1 [Compound 32],> 25 µM
2,O=C(Nc1ccc2c(c1)COC2=O)c1cc(-c2ccncc2)n(-c2ccc(C(F)(F)F)c(F)c2)n1 [Compound 113],> 25 µM
3,Cc1cnc(-c2cc(C(=O)N3CCC4(CC3)C(=O)NCN4c3ccc(F)cc3)nn2-c2ccc(C(F)(F)F)cc2)c(C)n1 [Compound 52],> 25 µM
4,O=C1NC(=O)C2(CCN(C(=O)c3cc(-c4ccncc4)n(-c4ccccc4)n3)CC2)N1 [Compound 30],> 25 µM
5,O=C1CSC2(CCN(C(=O)c3cc(-c4ccncc4)n(-c4ccc(F)c(F)c4)n3)CC2)N1 [Compound 90],> 25 µM
6,O=C(c1cc(-c2cccnc2)n(-c2ccc(C(F)(F)F)cc2Cl)n1)N1CCC2(CC1)C(=O)NCN2c1ccc(F)c(F)c1 [Compound 218],0.001 to 5 µM
7,Cc1cc(N2CNC(=O)C23CCN(C(=O)c2cc(-c4cccnc4)n(-c4ccc(F)c(C#N)c4)n2)CC3)cc(C)c1F [Compound 249],0.001 to 5 µM
8,O=C(Nc1nc(-c2ccc(C(F)(F)F)cc2)cs1)c1cc(-c2ccncc2)n(-c2ccccc2)n1 [Compound 35],> 25 µM
9,O=C1Nc2cc(F)c(F)cc2C2(CCN(C(=O)c3cc(-c4cccnc4)n(-c4ccc(F)c(C(F)(F)F)c4)n3)CC2)O1 [Compound 273],0.001 to 5 µM
10,Cn1c(=O)c(=O)n(C)c2cc(NC(=O)c3cc(-c4ccncc4)n(-c4ccc(C(F)(F)F)c(F)c4)n3)ccc21 [Compound 112],> 25 µM
11,O=C1Nc2ccc(F)c(F)c2C2(CCN(C(=O)c3cc(-c4cccnc4)n(-c4ccc(F)c(C(F)(F)F)c4)n3)CC2)O1 [Compound 272],0.001 to 5 µM
12,O=C(c1cc(-c2ccncc2)n(-c2ccc3c(c2)OCO3)n1)N1CCC2(CC1)C(=O)NCN2c1ccccc1 [Compound 155],> 25 µM
13,O=C(c1cc(-c2ccncc2)n(-c2ccc(C(F)(F)F)c(F)c2)n1)N1CCC(c2nc3ccccc3o2)CC1 [Compound 108],> 25 µM
14,CN1C(=O)COc2cc(NC(=O)c3cc(-c4ccncc4)n(-c4ccc(C(F)(F)F)c(F)c4)n3)ccc21 [Compound 110],> 25 µM
15,"O=C(c1cc(-c2ccnnc2)n(-c2ccc(C(F)(F)F)c(F)c2)n1)N1CCC2(CC1)C(=O)NCN2c1ccc(F)cc1 [Compound 320, 8-(1-(3-fluoro-4-(trifluoromethyl)phenyl)-5-(pyridazin-4-yl)-1H-pyrazole-3-carbonyl)-1-(4-fluorophenyl)-1,3,8-triazaspiro [4.5]decan-4-one]",0.001 to 5 µM
